{"source": "paper PMC12207370", "about": "“Macrocyclic Peptide Probes for Immunomodulatory Protein CD59: Potent Modulators of Bacterial Toxin Activity and Antibody‐Dependent Cytotoxicity” (Angewandte Chemie (International Ed. in English), 2025)", "key": {"CD59": {"target": "T1, CD59 (Homo sapiens, UniProt P13987)", "T1 construct": "Recombinant soluble human CD59 with an additional C-terminal cysteine residue", "T1 sequence (P13987 26-102 limits assumed)": "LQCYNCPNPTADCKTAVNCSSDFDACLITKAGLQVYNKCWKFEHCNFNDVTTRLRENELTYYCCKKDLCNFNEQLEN", "experiment": "SPR (Biacore S200) binding to immobilised biotinylated CD59", "settings": "for Kd: Ala scan of CP-06, SPR, n = 1", "from_the_text": "To identify which of these peptides bound CD59 most tightly, we used a Biacore S200 surface plasmon resonance (SPR) platform to investigate CD59 affinity (Figure 2b), using a known protein binding partner of CD59 (rILYd4) as a benchmark. Four 13‐mer macrocyclic peptides and one 14‐mer macrocyclic peptide were identified with a dissociation constant (K D) lower than that of rILYd4. Considering their fourfold lower molecular weight, these peptides bind with up to 19‐fold greater efficiency compared to rILYd4 (Figure 2b).\nEquipment: SPR analysis was performed on a Cytiva Biacore S200. All buffers were prepared using ultra-pure water from a Millipore Elix Q-Gard purification system. Solutions and buffers were filtered with a 0.22 μm filter and degassed prior to use. The assays were performed on Series S streptavidin (SA) sensor chip (Cytiva). PBS-P+ buffer 10X (0.2 M phosphate buffer with 27 mM KCl, 1.37 M NaCl and 0.5% Surfactant P20 (Tween 20)) was used for the preparation of the assay running buffer (PBS-P+ 1X).\nImmobilisation of CD59-biotin: Biotinylated CD59 was immobilised on the surface of a SA chip by non-covalent capture (biotin streptavidin interaction) as per the manufacturer’s instructions. The system was initially primed with running buffer and normalised using BIAnormalizing solution (70% (w/w) glycerol) (Cytiva). Before immobilising the protein, the surface was conditioned with three consecutive one-minute injections of 1 M NaCl in 50 mM NaOH. Biotinylated CD59 (0.5 µg/mL in running buffer) was flowed over the protein (active) channel for different contact times to achieve different immobilisation levels (600–1200 RU). After each protein injection, the needle and injection loop were washed using 50% isopropanol in 1 M NaCl and 50 mM NaOH. A reference channel was prepared by similar treatment; however, running buffer alone rather than CD59-biotin in running buffer was flowed over the chip the same way.\nInteraction analysis: Multicycle kinetic and affinity approach was used for the analysis of peptides interactions with CD59. Two-fold serial dilutions of each peptide were prepared in running buffer and were flowed over both the ligand and reference channel using a flow rate (30 μL/min) at 25 °C. A zero concentration was added to each analyte series and three cycles of buffer were run between analytes to restore the baseline. The obtained sensorgrams were analysed using the embedded Biacore S200 Evaluation software. The data were normalised by subtracting RU values of the reference channel and zero concentration of the analyte series. Kinetic rate constants (kon and koff) were determined by fitting the normalised data using the built-in Kinetic analysis model (non-linear regression with a 1:1 Langmuir binding model), KD values were then calculated from the two rate constants ([…]). The KD values were determined again by fitting the normalised data using the built-in Affinity analysis model (1:1 Langmuir binding model)."}, "[1]": {"experiment": "Solubility and aggregation behaviour of hit peptides (stated in words)", "format": "physicochemical"}, "[2]": {"system": "antibody-sensitized human erythrocytes", "experiment": "Enhancement of CDC lysis assay (complement dependent cytotoxicity) in antibody-sensitized erythrocytes", "format": "cell-based", "experimental": "Figure 5 CP‐06 and optimized analogues control CD59 activity in cellular assays. a) ILY lysis assay. SK‐BR‐3 cells were treated with CP‐06 (n = 4) or CP‐06[W3A] (n = 2), then with Sytox green dye and ILY ([…]). The plate was imaged immediately with the IncuCyte S3 Live Cell Analysis System and then every hour up to 14 h. The linear phase of lysis was taken from each well, and linear regression was performed to extract individual slope values, which were then normalized to maximum lysis rate (Sytox and ILY) vs. 0% lysis (Sytox only) within each plate. […] Human erythrocytes were sensitized with 1% w/v anti‐human erythrocyte Ab with 5% v/v human serum in the presence of a serial dilution of CP‐06C18 (black bars) or CP‐06scrmb‐C18 (red bars) Percent lysis enhancement was calculated by normalization to 0% enhancement (buffer well) and plotted as the mean of three biological replicates ± SEM. […]\nEnhancement of CDC lysis assay: A 50% (v/v) erythrocyte stock suspension was prepared as described above. […] The following controls were included: (1) a positive control which contained Tween-20 (Cf = 1%), (2) a negative control well that contained PBS, and (3) a vehicle only well that contained PBS without erythrocytes to subtract the absorbance of the vehicle. […]"}}, "note": "Where two headings read alike, the source gives them in different places. Bridge positions count the residues as written; N and C are the ends. Square brackets hold non-standard residues; d marks the D form. Peptide text beside a SMILES is read from it. * marks the point of attachment. X1 = CCCCCCCCCCCCCCCCCOCCOCCOCCOCCOCCOCCOCCOCCOCCOCCOCCOCCOCCC(=O)*", "data": [{"smiles": "CC(C)[C@@H]1NC(=O)[C@H](CO)NC(=O)[C@H](CO)NC(=O)[C@H](CCCNC(=N)N)NC(=O)[C@H](CC(N)=O)NC(=O)CNC(=O)[C@H](Cc2c[nH]c3ccccc23)NC(=O)[C@H]([C@@H](C)O)NC(=O)[C@H](Cc2c[nH]c3ccccc23)NC(=O)[C@H](CO)NC(=O)[C@@H](Cc2ccc(O)cc2)NC(=O)CSC[C@@H](C(N)=O)NC(=O)CNC(=O)[C@H](CCCNC(=N)N)NC1=O", "note": "[CP-06] (HELM PEPTIDE1{[O=C(C[*:3])[*:2]].[dY].S.W.T.W.G.N.R.S.S.V.R.G.C.[am]}$PEPTIDE1,PEPTIDE1,1:R3-15:R3$$$V2.0)", "values": [{"measurement": "koff", "setting": "CD59; SPR, immobilized CD59, read-out: Koff (dissociation rate constant)", "result": 0.0204, "unit": "s⁻¹"}, {"measurement": "kon", "setting": "CD59; SPR, immobilized CD59, read-out: Kon (association rate constant)", "result": "1.86e+06", "unit": "M⁻¹ s⁻¹"}, {"measurement": "solubility (in words)", "setting": "[1]", "result": "good solubility"}]}, {"smiles": "CCCCCCCCCCCCCCCCCOCCOCCOCCOCCOCCOCCOCCOCCOCCOCCOCCOCCOCCC(=O)NCCCC[C@H](NC(=O)CNC(=O)[C@@H]1CSCC(=O)N[C@H](Cc2ccc(O)cc2)C(=O)N[C@@H](CO)C(=O)N[C@@H](Cc2c[nH]c3ccccc23)C(=O)N[C@@H]([C@@H](C)O)C(=O)N[C@@H](Cc2c[nH]c3ccccc23)C(=O)NCC(=O)N[C@@H](CC(N)=O)C(=O)N[C@@H](CCCNC(=N)N)C(=O)N[C@@H](CO)C(=O)N[C@@H](CO)C(=O)N[C@@H](C(C)C)C(=O)N[C@@H](CCCNC(=N)N)C(=O)NCC(=O)N1)C(=O)NCC(N)=O", "note": "[CP-06C18] ({CH2CO}-[dY]SWTWGNRSSVRGCGK(X1)G-NH2; thioether N-14)", "values": [{"measurement": "enhancement of mAb-mediated CDC (in words)", "setting": "[2]; anti-RBC antibody, 5% human serum", "result": "enhanced mAb‐mediated CDC in a dose‐dependent manner"}, {"measurement": "lysis in the absence of anti-RBC (in words)", "setting": "[2]; no anti-RBC antibody, Figure S4", "result": "Neither peptide caused lysis above background"}]}, {"smiles": "C[C@@H]1NC(=O)[C@H](CO)NC(=O)[C@H](CO)NC(=O)[C@H](CCCNC(=N)N)NC(=O)[C@H](CC(N)=O)NC(=O)CNC(=O)[C@H](Cc2c[nH]c3ccccc23)NC(=O)[C@H]([C@@H](C)O)NC(=O)[C@H](Cc2c[nH]c3ccccc23)NC(=O)[C@H](CO)NC(=O)[C@@H](Cc2ccc(O)cc2)NC(=O)CSC[C@@H](C(N)=O)NC(=O)CNC(=O)[C@H](CCCNC(=N)N)NC1=O", "note": "[CP-06-V11A] (HELM PEPTIDE1{[O=C(C[*:3])[*:2]].[dY].S.W.T.W.G.N.R.S.S.A.R.G.C.[am]}$PEPTIDE1,PEPTIDE1,1:R3-15:R3$$$V2.0)", "values": [{"measurement": "Kd", "setting": "CD59; read-out: PKD (converted)", "result": 30.2, "unit": "nM"}]}, {"smiles": "CC(C)[C@@H]1NC(=O)[C@H](CO)NC(=O)[C@H](C)NC(=O)[C@H](CCCNC(=N)N)NC(=O)[C@H](CC(N)=O)NC(=O)CNC(=O)[C@H](Cc2c[nH]c3ccccc23)NC(=O)[C@H]([C@@H](C)O)NC(=O)[C@H](Cc2c[nH]c3ccccc23)NC(=O)[C@H](CO)NC(=O)[C@@H](Cc2ccc(O)cc2)NC(=O)CSC[C@@H](C(N)=O)NC(=O)CNC(=O)[C@H](CCCNC(=N)N)NC1=O", "note": "[CP-06-S9A] (HELM PEPTIDE1{[O=C(C[*:3])[*:2]].[dY].S.W.T.W.G.N.R.A.S.V.R.G.C.[am]}$PEPTIDE1,PEPTIDE1,1:R3-15:R3$$$V2.0)", "values": [{"measurement": "Kd", "setting": "CD59; read-out: KD", "result": 22, "unit": "nM"}]}, {"smiles": "CC(C)[C@@H]1NC(=O)[C@H](CO)NC(=O)[C@H](CO)NC(=O)[C@H](CCCNC(=N)N)NC(=O)[C@H](CC(N)=O)NC(=O)[C@H](C)NC(=O)[C@H](Cc2c[nH]c3ccccc23)NC(=O)[C@H]([C@@H](C)O)NC(=O)[C@H](Cc2c[nH]c3ccccc23)NC(=O)[C@H](CO)NC(=O)[C@@H](Cc2ccc(O)cc2)NC(=O)CSC[C@@H](C(N)=O)NC(=O)CNC(=O)[C@H](CCCNC(=N)N)NC1=O", "note": "[CP-06-G6A] (HELM PEPTIDE1{[O=C(C[*:3])[*:2]].[dY].S.W.T.W.A.N.R.S.S.V.R.G.C.[am]}$PEPTIDE1,PEPTIDE1,1:R3-15:R3$$$V2.0)", "values": [{"measurement": "Kd", "setting": "CD59; read-out: KD", "result": 235, "unit": "nM"}]}]}
